Data: patent publication US8119681B2, “2-[1-phenyl-5-hydroxy or methoxy-4alpha-methyl-hexahydrocyclopenta [ƒ]indazole-5-YL]ethyl phenyl derivatives as glucocorticoid receptor ligands” (Merck Sharp & Dohme Corp., priority 2006, dated 2012)
Read-outs that look alike come from different tables or passages of the source.

Target: T1, human GR (Homo sapiens, UniProt P04150)
T1 sequence (P04150 1-777): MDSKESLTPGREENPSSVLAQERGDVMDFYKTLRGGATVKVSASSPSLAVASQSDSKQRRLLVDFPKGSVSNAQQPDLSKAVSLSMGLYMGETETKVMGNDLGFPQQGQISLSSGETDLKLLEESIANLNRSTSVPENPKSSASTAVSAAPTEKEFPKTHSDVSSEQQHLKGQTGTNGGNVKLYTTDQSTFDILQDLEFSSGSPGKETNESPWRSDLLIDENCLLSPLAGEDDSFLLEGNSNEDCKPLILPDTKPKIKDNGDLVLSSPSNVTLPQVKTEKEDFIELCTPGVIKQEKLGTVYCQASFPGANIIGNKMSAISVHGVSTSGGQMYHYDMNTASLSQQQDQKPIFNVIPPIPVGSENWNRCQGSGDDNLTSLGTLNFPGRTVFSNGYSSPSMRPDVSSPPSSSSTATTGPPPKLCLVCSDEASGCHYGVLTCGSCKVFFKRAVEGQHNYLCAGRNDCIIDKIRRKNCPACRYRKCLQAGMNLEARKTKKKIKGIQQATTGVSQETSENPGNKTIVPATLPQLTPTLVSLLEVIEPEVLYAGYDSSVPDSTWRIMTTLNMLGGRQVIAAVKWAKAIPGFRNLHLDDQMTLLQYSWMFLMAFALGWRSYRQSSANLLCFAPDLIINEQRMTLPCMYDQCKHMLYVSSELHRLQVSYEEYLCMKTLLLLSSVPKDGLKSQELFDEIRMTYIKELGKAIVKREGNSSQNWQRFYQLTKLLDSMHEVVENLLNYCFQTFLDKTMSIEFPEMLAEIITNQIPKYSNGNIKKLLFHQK
Experiment: Transrepression Assay (GITAR), TNFα-β-lactamase reporter gene in U937 cells
Assay type: cell-based
Set-up: U937 cells contain an endogenous glucocorticoid receptor (GR); endogenous in cells; host or cells: U937 cells stably transfected with the TNF-α promoter/β-lactamase reporter only
Conditions: for EC50: IP = inflection point; for GITAR > GRAMM % SEP: separation of GITAR Emax over GRAMMER Emax; for Emax: U-937
Procedure, shortened: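 Reporter readout used CCF2-AM loading for 70–90 min at room temperature after overnight (~18 h, 37 °C) PMA (5 ng/ml final) and LPS (100 ng/ml final) stimulation of compound-treated (30–45 min) TNFα-β-lactamase U937 cells expressing native GR. Activity was normalised to 100 nM dexamethasone repression.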

[1] = Table 1, U937 cells, read-out: Transrepression U937 Cells GITAR IP
[2] = 100 nM dexamethasone = 100% activity, read-out: maximal activity in the transrepression assay
[3] = Table 1, U937 cells, activity repressed by 100 nM dexamethasone = 100%, read-out: Transrepression U937 Cells GITAR Emax (%)
[4] = Table 2, U937 cells, read-out: Transactiviation U937 Cells GITAR IP
[5] = Table 2, U937 cells, activity repressed by 100 nM dexamethasone = 100%, read-out: Transactiviation U937 Cells GITAR Emax (%)

Row | SMILES | EC50 [1] | GITAR > GRAMM % SEP (Table 1) | Emax [2] | Emax [3] | EC50 [4] | GITAR > GRAMM % SEP (Table 2) | Emax [5]
1 | CC(O)(C(N)=O)c1ccccc1CC[C@]1(O)CCC2=Cc3c(cnn3-c3ccc(F)cc3)C[C@@]21C (single isomer, unassigned) [Example 150] | 0.21 µM | 29% | 5 to 100% | 67% |  |  | 
2 | CC(C(N)=O)c1ccccc1CC[C@]1(O)CCC2=Cc3c(cnn3-c3ccc(F)cc3)C[C@@]21C (single isomer, unassigned) [Example 196] | 0.287 µM | 20% | 5 to 100% | 40% |  |  | 
3 | C[C@]12Cc3cnn(-c4ccc(F)cc4)c3C=C1CC[C@@]2(O)CCc1ccccc1C(F)C(N)=O (single isomer, unassigned) [Example 198] | 0.197 µM | 23% | 5 to 100% | 52% |  |  | 
4 | C[C@]12Cc3cnn(-c4ccc(F)cc4)c3C=C1CC[C@@]2(O)CCc1ccccc1 [Example 2 WO 2004/075840 A2, reference compound] |  |  |  |  | 0.204 µM | 5% | 78%
5 | C[C@]12Cc3cnn(-c4ccc(F)cc4)c3C=C1CC[C@@]2(O)CCc1ccccc1CNS(=O)(=O)C1CC1 [Example 5, N-(2-{2-[(4αS,5R)-1-(4-fluorophenyl)-5-hydroxy-4α-methyl-1,4,4α,5,6,7-hexahydrocyclopenta[f]indazol-5-yl]ethyl}benzyl)cyclopropanesulfonamide] | 0.179 µM |  | 5 to 100% | 64% |  |  | 
6 | C[C@]12Cc3cnn(-c4ccc(F)cc4)c3C=C1CC[C@@]2(O)CCc1ccccc1N1CCC1=O [Example 11, 1-(2-{2-[(4αS,5R)-1-(4-fluorophenyl)-5-hydroxy-4α-methyl-1,4,4α,5,6,7-hexahydrocyclopenta[f]indazol-5-yl]ethyl}phenyl)azetidin-2-one] | 0.208 µM | 17% | 5 to 100% | 57% |  |  | 
7 | C[C@]12Cc3cnn(-c4ccc(F)cc4)c3C=C1CC[C@@]2(O)CCc1ccccc1NS(=O)(=O)C1CC1 [Example 15, N-(2-{2-[(4αS,5R)-1-(4-fluorophenyl)-5-hydroxy-4α-methyl-1,4,4α,5,6,7-hexahydrocyclopenta[f]indazol-5-yl]ethyl}phenyl)cyclopropanesulfonamide] | 0.242 µM | 36% | 5 to 100% | 79% |  |  | 
8 | C[C@]12Cc3cnn(-c4ccc(F)cc4)c3C=C1CC[C@@]2(O)CCc1ccccc1S(C)(=O)=O [Example 19, (4αS,5R)-1-(4-fluorophenyl)-4α-methyl-5-{2-[2-(methylsulfonyl)phenyl]ethyl}-1,4,4α,5,6,7-hexahydrocyclopenta[f]indazol-5-ol] | 0.187 µM | 33% | 5 to 100% | 79% |  |  | 
9 | C[C@]12Cc3cnn(-c4ccc(F)cc4)c3C=C1CCC[C@@H]2[C@@H](O)Cc1ccccc1 [Example 22 WO 03/086294 A2, reference compound] |  |  |  |  | 0.327 µM | −14% | 71%
10 | CNC(=O)Cc1ccccc1CC[C@]1(O)CCC2=Cc3c(cnn3-c3ccc(F)cc3)C[C@@]21C [Example 23, 2-(2-{2-[(4αS,5R)-1-(4-fluorophenyl)-5-hydroxy-4α-methyl-1,4,4α,5,6,7-hexahydrocyclopenta[f]indazol-5-yl]ethyl}phenyl)-N-methylacetamide] | 0.263 µM | 37% | 5 to 100% | 73% |  |  | 
11 | COC(=O)C1(NC(=O)c2ccccc2CC[C@]2(O)CCC3=Cc4c(cnn4-c4ccc(F)cc4)C[C@@]32C)CC1 [Example 26, methyl 1-[(2-{2-[(4αS,5R)-1-(4-fluorophenyl)-5-hydroxy-4α-methyl-1,4,4α,5,6,7-hexahydrocyclopenta[f]indazol-5-yl]ethyl}benzoyl)amino]cyclopropanecarboxylate] | 0.123 µM | 15% | 5 to 100% | 39% |  |  | 

The next lines start with the values.

Row | EC50 [1] | GITAR > GRAMM % SEP (Table 1) | Emax [2] | Emax [3] | EC50 [4] | GITAR > GRAMM % SEP (Table 2) | Emax [5] | SMILES
12 | 0.088 µM | 14% | 5 to 100% | 65% |  |  |  | CCNC(=O)c1ccccc1CC[C@]1(O)CCC2=Cc3c(cnn3-c3ccc(F)cc3)C[C@@]21C [Example 2, N-ethyl-2-{2-[(4αS,5R)-1-(4-fluorophenyl)-5-hydroxy-4α-methyl-1,4,4α,5,6,7-hexahydrocyclopenta[f]indazol-5-yl]ethyl}benzamide]
13 | 0.193 µM | 23% | 5 to 100% | 79% |  |  |  | CC(=O)Nc1ccccc1CC[C@]1(O)CCC2=Cc3c(cnn3-c3ccc(F)cc3)C[C@@]21C [Example 14, N-(2-{2-[(4αS,5R)-1-(4-fluorophenyl)-5-hydroxy-4α-methyl-1,4,4α,5,6,7-hexahydrocyclopenta[f]indazol-5-yl]ethyl}phenyl)acetamide]
14 | 0.065 µM | 43% | 5 to 100% | 72% |  |  |  | CC1(NC(=O)c2ccccc2CC[C@]2(O)CCC3=Cc4c(cnn4-c4ccc(F)cc4)C[C@@]32C)CC1 [Example 28, 2-{2-[(4αS,5R)-1-(4-fluorophenyl)-5-hydroxy-4α-methyl-1,4,4α,5,6,7-hexahydrocyclopenta[f]indazol-5-yl]ethyl}-N-(1-methylcyclopropyl)benzamide]
15 | 0.19 µM | 37% | 5 to 100% | 61% |  |  |  | CC(C)CNC(=O)c1ccccc1CC[C@]1(O)CCC2=Cc3c(cnn3-c3ccc(F)cc3)C[C@@]21C [Example 29, 2-{2-[(4αS,5R)-1-(4-fluorophenyl)-5-hydroxy-4α-methyl-1,4,4α,5,6,7-hexahydrocyclopenta[f]indazol-5-yl]ethyl}-N-isobutylbenzamide]
16 | 0.127 µM | 21% | 5 to 100% | 50% |  |  |  | CCCNC(=O)c1ccccc1CC[C@]1(O)CCC2=Cc3c(cnn3-c3ccc(F)cc3)C[C@@]21C [Example 30, 2-{2-[(4αS,5R)-1-(4-fluorophenyl)-5-hydroxy-4α-methyl-1,4,4α,5,6,7-hexahydrocyclopenta[f]indazol-5-yl]ethyl}-N-propylbenzamide]
17 | 0.183 µM | 39% | 5 to 100% | 48% |  |  |  | CC(CNC(=O)c1ccccc1CC[C@]1(O)CCC2=Cc3c(cnn3-c3ccc(F)cc3)C[C@@]21C)C(F)(F)F (stereo partly drawn) [Example 31, 2-{2-[(4αS,5R)-1-(4-fluorophenyl)-5-hydroxy-4α-methyl-1,4,4α,5,6,7-hexahydrocyclopenta[f]indazol-5-yl]ethyl}-N-(3,3,3-trifluoro-2-methylpropyl)benzamide]
18 | 0.277 µM | 36% | 5 to 100% | 49% |  |  |  | C=C(C)CNC(=O)c1ccccc1CC[C@]1(O)CCC2=Cc3c(cnn3-c3ccc(F)cc3)C[C@@]21C [Example 32, 2-{2-[(4αS,5R)-1-(4-fluorophenyl)-5-hydroxy-4α-methyl-1,4,4α,5,6,7-hexahydrocyclopenta[f]indazol-5-yl]ethyl}-N-(2-methylprop-2-en-1-yl)benzamide]
19 | 0.123 µM | 25% | 5 to 100% | 62% |  |  |  | C=CCNC(=O)c1ccccc1CC[C@]1(O)CCC2=Cc3c(cnn3-c3ccc(F)cc3)C[C@@]21C [Example 33, N-allyl-2-{2-[(4αS,5R)-1-(4-fluorophenyl)-5-hydroxy-4α-methyl-1,4,4α,5,6,7-hexahydrocyclopenta[f]indazol-5-yl]ethyl}benzamide]
